In ChEMBL document CHEMBL1201862, “PubChem BioAssay data set” (2004):
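These data come from cells grown in 96-well plates and exposed to compound for 48 hours at five concentrations. Abbreviation: GI50, concentration required for 50% inhibition of growth.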 Calls of active or inactive are those of the source. No stated cut-off is given here; in the data, active = GI50 up to about 1.1 µM and inactive = higher.

Assays:
Test in all cases: growth of human tumour cells (NCI), 48 h
[1] = test system: 786-0
[2] = test system: A498
[3] = test system: A549
[4] = test system: ACHN
[5] = test system: CAKI-1
[6] = test system: CCRF-CEM
[7] = test system: COLO 205
[8] = test system: DU-145
[9] = test system: EKVX
[10] = test system: HCC 2998
[11] = test system: HCT-116
[12] = test system: HCT-15
[13] = test system: HL-60
[14] = test system: HOP-62
[15] = test system: HOP-92
[16] = test system: HT-29
[17] = test system: Hs-578T
[18] = test system: IGROV-1
[19] = test system: K562
[20] = test system: KM12
[21] = test system: LOX IMVI
[22] = test system: M14
[23] = test system: MCF7
[24] = test system: MDA-MB-231
[25] = test system: MDA-MB-435
[26] = test system: MDA-N
[27] = test system: MOLT-4
[28] = test system: Malme-3M
[29] = test system: NCI-H226
[30] = test system: NCI-H23
[31] = test system: NCI-H460
[32] = test system: NCI-H522
[33] = test system: NCI/ADR-RES
[34] = test system: OVCAR-3
[35] = test system: OVCAR-4
[36] = test system: OVCAR-5
[37] = test system: OVCAR-8
[38] = test system: PC-3
[39] = test system: RPMI-8226
[40] = test system: RXF 393
[41] = test system: SF-268
[42] = test system: SF-295
[43] = test system: SF-539
[44] = test system: SK-MEL-28
[45] = test system: SK-MEL-2
[46] = test system: SK-MEL-5
[47] = test system: SK-OV-3
[48] = test system: SN12C
[49] = test system: SNB-19
[50] = test system: SW-620
[51] = test system: T47D
[52] = test system: TK-10
[53] = test system: U-251
[54] = test system: UACC-257
[55] = test system: UACC-62
[56] = test system: UO-31
[57] = test system: SR

Measured: GI50

O=C(Cn1c(-c2ccccc2)cc2ccccc21)N1CCOCC1
inactive: [1] 41.4 µM | [2] > 100 µM | [3] > 100 µM | [4] > 100 µM | [5] > 100 µM | [6] > 100 µM | [7] > 100 µM | [8] > 100 µM | [9] > 100 µM | [10] > 100 µM | [11] > 100 µM | [13] > 100 µM | [14] 32.7 µM | [15] > 100 µM | [16] > 100 µM | [17] > 100 µM | [18] > 100 µM | [19] > 100 µM | [20] > 100 µM | [21] > 100 µM | [22] > 100 µM | [23] > 100 µM | [24] 34.2 µM | [25] > 100 µM | [26] > 100 µM | [27] > 100 µM | [28] > 100 µM | [29] > 100 µM | [30] > 100 µM | [31] > 100 µM | [32] > 100 µM | [33] > 100 µM | [34] > 100 µM | [35] > 100 µM | [36] > 100 µM | [37] > 100 µM | [38] 61.1 µM | [39] > 100 µM | [40] > 100 µM | [41] 34.4 µM | [42] > 100 µM | [43] 67.1 µM | [44] > 100 µM | [45] > 100 µM | [46] > 100 µM | [47] > 100 µM | [48] > 100 µM | [49] 79.3 µM | [50] > 100 µM | [51] > 100 µM | [52] > 100 µM | [53] 45 µM | [54] > 100 µM | [55] > 100 µM | [56] > 100 µM
> 100 µM: [12]

COc1cc([C@@H]2c3cc4c(cc3[C@@H](Nc3ccc(C(=O)N[C@H]5CCc6cc(OC)c(OC)c(OC)c6-c6ccc(SC)c(=O)cc65)cc3)[C@H]3COC(=O)[C@H]23)OCO4)cc(OC)c1O
0.428 µM: [12]
active: [1] < 0.01 µM | [2] 0.437 µM | [3] < 0.01 µM | [4] 0.0598 µM | [5] 0.132 µM | [6] < 0.01 µM | [7] < 0.01 µM | [11] < 0.01 µM | [15] 0.042 µM | [16] < 0.01 µM | [19] < 0.01 µM | [21] < 0.01 µM | [22] < 0.01 µM | [23] < 0.01 µM | [25] < 0.01 µM | [27] < 0.01 µM | [28] 0.322 µM | [29] < 0.01 µM | [30] < 0.01 µM | [31] < 0.01 µM | [32] < 0.01 µM | [33] 0.493 µM | [37] < 0.01 µM | [39] < 0.01 µM | [42] < 0.01 µM | [43] < 0.01 µM | [45] < 0.01 µM | [48] < 0.01 µM | [57] < 0.01 µM | [50] < 0.01 µM | [53] < 0.01 µM | [54] < 0.01 µM | [55] < 0.01 µM | [56] 0.698 µM
inactive: [36] 43.1 µM | [41] 11.7 µM | [44] 13 µM | [52] 15.2 µM
